Experimental data: patent US6372747B1, “Farnesyl protein transferase inhibitors” (Schering Corporation, priority 1998, dated 2002)

Tested on: Human tumor cells
Experiment: Soft Agar Assay (anchorage-independent growth)
Format: cell-based
Conditions: Homo sapiens, range stated for the group unless single
Protocol: Anchorage-independent growth is a characteristic of tumorigenic cell lines. Human tumor cells can be suspended in growth medium containing 0.3% agarose and an indicated concentration of a farnesyl transferase inhibitor. The solution can be overlayed onto growth medium solidified with 0.6% agarose containing the same concentration of farnesyl transferase inhibitor as the top layer. After the top layer is solidified, plates can be incubated for 10-16 days at 37° C. under 5% CO2 to allow colony outgrowth. After incubation, the colonies can be stained by overlaying the agar with a solution of MTT (3-[4,5-dimethyl-thiazol-2-yl]-2,5-diphenyltetrazolium bromide, Thiazolyl blue) (1 mg/mL in PBS). Colonies can be counted and the IC50's can be determined.

| SMILES | IC50 |
| --- | --- |
| CCOC(=O)N1CCC([C@H]2c3ccc(Cl)cc3CCc3cc(Br)cnc32)CC1C(=O)N(CCCn1ccnc1)Cc1ccccc1 (single isomer, unassigned) [80 (Isomer A)] | 2 to 300 nM |
| O=C(C1CC([C@H]2c3ccc(Cl)cc3CCc3cc(Br)cnc32)CCN1C(=O)NC1CCCCC1)N(CCCn1ccnc1)Cc1ccccc1 (single isomer, unassigned) [Example 79 Step B (Isomer A)] | 2 to 300 nM |
| Cc1cn(CCCN(Cc2ccccc2O)C(=O)[C@H]2CN([C@H]3c4ccc(Cl)cc4CCc4cccnc43)CCN2C(=O)OC2CCCCC2)cn1 (single isomer, unassigned) [Example 316] | 2 to 10 nM |
| Cc1cn(CCCN(Cc2ccccc2)C(=O)[C@@H]2CN([C@H]3c4ccc(Cl)cc4CCc4cccnc43)CCN2C(=O)OC2CCCCC2)cn1 (single isomer, unassigned) [Example 321] | 2 to 10 nM |
| Cc1cn(CCCN(Cc2ccccc2Cl)C(=O)[C@H]2CN([C@H]3c4ccc(Cl)cc4CCc4cccnc43)CCN2C(=O)OC2CCCCC2)cn1 (single isomer, unassigned) [Example 324] | 2 to 10 nM |
| Cc1cncn1CCCN(Cc1ccccc1)C(=O)[C@H]1CN([C@H]2c3ccc(Cl)cc3CCc3cccnc32)CCN1C(=O)OC1CCCCC1 (single isomer, unassigned) [Example 325] | 2 to 10 nM |
| Cc1cn(CCCN(Cc2ccccc2)C(=O)[C@H]2CN(C3c4ccccc4CCc4cccnc43)CCN2C(=O)OC2CCCCC2)cn1 (single isomer, unassigned) [Example 372] | 2 to 10 nM |
| Cc1cn(CCCN(Cc2ccccc2)C(=O)[C@H]2CN(C3c4ccc(Cl)cc4CCc4cc(Br)cnc43)CCN2C(=O)OC2CCCCC2)c(C)n1 (single isomer, unassigned) [Example 375] | 2 to 10 nM |
| Cc1nccn1CCCN(Cc1ccccc1)C(=O)[C@H]1CN(C2c3ccc(Cl)cc3CCc3cc(Br)cnc32)CCN1C(=O)OC1CCCCC1 (single isomer, unassigned) [Example 382] | 2 to 10 nM |
| Cn1cncc1CCN(CC1CC1)C(=O)[C@H]1CN([C@H]2c3ccc(Cl)cc3CCc3cc(Br)cnc32)CCN1C(=O)OC(C)(C)C [305 (11s,2R isomer)] | 2 to 10 nM |
| CC(C)(C)NC(=O)N1CCN([C@@H]2c3ccc(Cl)cc3CCc3cc(Br)cnc32)C[C@@H]1C(=O)NCCC(C)(C)n1ccnc1 [Example 11] | 2 to 300 nM |
| CC(C)OC(=O)N1CCN([C@H]2c3ccc(Cl)cc3CCc3cc(Br)cnc32)C[C@@H]1C(=O)NCCC(C)(C)n1ccnc1 [Example 16] | 2 to 300 nM |
| CC(C)(C)OC(=O)N1CCC(C2c3ccc(Cl)cc3CCc3cc(Br)cnc32)CC1C(=O)N(CCCn1ccnc1)Cc1ccccc1 (centres unmarked) [Example 88] | 2 to 300 nM |
| CC(C)(C)OC(=O)N1CCN(C2c3ccc(Cl)cc3CCc3cc(Br)cnc32)C[C@@H]1C(=O)N(CCCn1ccnc1)Cc1ccncc1 (some centres unmarked) [Example 116] | 2 to 10 nM |
| CC(C)(C)OC(=O)N1CCN(C2c3ccc(Cl)cc3CCc3cc(Br)cnc32)C[C@@H]1C(=O)N(CCCn1ccnc1)Cc1cccnc1 (some centres unmarked) [Example 117] | 2 to 10 nM |
| CC(C)(C)OC(=O)N1CCN([C@@H]2c3ccc(Cl)cc3CCc3cc(Br)cnc32)C[C@@H]1C(=O)N(CCCn1ccnc1)Cc1ccccc1 [Example 160] | 2 to 10 nM |
| O=C([C@H]1CN([C@H]2c3ccc(Cl)cc3CCc3cc(Br)cnc32)CCN1C(=O)OC1CCCCC1)N(CCCn1ccnc1)Cc1ccccc1 [Example 170] | 2 to 10 nM |
| CC(C)COC(=O)N1CCN([C@@H]2c3ccc(Cl)cc3CCc3cc(Br)cnc32)C[C@@H]1C(=O)N(CCCn1ccnc1)Cc1ccccc1 [Example 184] | 2 to 10 nM |

| SMILES | IC50 |
| --- | --- |
| O=C([C@H]1CN([C@H]2c3ccc(Cl)cc3CCc3cccnc32)CCN1C(=O)OC1CCCCC1)N(CCCn1ccnc1)Cc1ccccc1 [Example 186] | 2 to 10 nM |
| CC(C)OC(=O)N1CCN([C@@H]2c3ccc(Cl)cc3CCc3cccnc32)C[C@@H]1C(=O)N(CCCn1ccnc1)Cc1ccccc1 [Example 187] | 2 to 10 nM |
| O=C([C@H]1CN([C@@H]2c3ccc(Cl)cc3CCc3cccnc32)CCN1C(=O)OC1CCCCC1)N(CCCn1ccnc1)Cc1ccccc1 [Example 188] | 2 to 10 nM |
| Cc1cn(CCCN(Cc2ccccc2)C(=O)[C@H]2CN([C@@H]3c4ccc(Cl)cc4CCc4cc(Br)cnc43)CCN2C(=O)OC(C)C)cn1 [Example 196] | 2 to 10 nM |
| Cc1cn(CCCN(Cc2ccccc2)C(=O)[C@H]2CN([C@@H]3c4ccc(Cl)cc4CCc4cc(Br)cnc43)CCN2C(=O)OC2CCCCC2)cn1 [Example 197] | 2 to 10 nM |
| Cc1cn(CCCN(Cc2ccccc2)C(=O)[C@H]2CN([C@@H]3c4ccc(Cl)cc4CCc4cccnc43)CCN2C(=O)OC2CCCCC2)cn1 [Example 198] | 2 to 10 nM |
| Cc1cn(CCCN(Cc2ccccc2)C(=O)[C@H]2CN([C@H]3c4ccc(Cl)cc4CCc4cccnc43)CCN2C(=O)OC(C)C)cn1 [Example 200] | 2 to 10 nM |
| Cc1cn(CCCN(Cc2ccccc2)C(=O)[C@H]2CN([C@@H]3c4ccc(Cl)cc4CCc4cccnc43)CCN2C(=O)OC2CCCC2)cn1 [Example 202] | 2 to 10 nM |
| CC(C)OC(=O)N1CCN([C@H]2c3ccc(Cl)cc3CCc3cccnc32)C[C@@H]1C(=O)N(CCCn1ccnc1)Cc1ccc(F)cc1 [Example 204] | 2 to 10 nM |
| CC(C)(C)OC(=O)N1CCN([C@H]2c3ccc(Cl)cc3CCc3cc(Br)cnc32)C[C@@H]1C(=O)N(CCCn1ccnc1)Cc1cccnc1 [Example 206] | 2 to 10 nM |
| CC(C)(C)OC(=O)N1CCN([C@@H]2c3ccc(Cl)cc3CCc3cc(Br)cnc32)C[C@@H]1C(=O)N(CCCn1ccnc1)Cc1cccnc1 [Example 207] | 2 to 10 nM |
| O=C([C@H]1CN([C@H]2c3ccc(Cl)cc3CCc3cccnc32)CCN1C(=O)OC1CCCCC1)N(CCCn1ccnc1CO)Cc1ccccc1 [Example 208] | 2 to 10 nM |
| CC(C)(C)OC(=O)N1CCN(C2c3ccc(Cl)cc3CCc3cc(Br)cnc32)C[C@@H]1C(=O)N(CCCn1ccnc1)Cc1ccccn1 (some centres unmarked) [Example 217] | 2 to 10 nM |
| Cc1cn(CCCN(Cc2ccccc2)C(=O)[C@H]2CN([C@H]3c4ccc(Cl)cc4CCc4cccnc43)CCN2C(=O)OC2CCCCC2)cn1 [Example 225] | 2 to 10 nM |
| Cc1cn(CCCN(Cc2cccc(Cl)c2)C(=O)[C@H]2CN([C@H]3c4ccc(Cl)cc4CCc4cccnc43)CCN2C(=O)OC2CCCCC2)cn1 [Example 322] | 2 to 10 nM |
| Cn1cncc1CCCN(Cc1ccccc1)C(=O)[C@H]1CN([C@H]2c3ccc(Cl)cc3CCc3cccnc32)CCN1C(=O)OC1CCCCC1 [Example 335] | 2 to 10 nM |
| Cc1cn(CC(O)(CNC(=O)[C@H]2CN(C3c4ccc(Cl)cc4CCc4cccnc43)CCN2C(=O)OC2CCCCC2)c2ccccc2)cn1 (some centres unmarked) [Example 339] | 2 to 10 nM |
| Cc1ncc(CCN(CC2CC2)C(=O)[C@H]2CN([C@H]3c4ccc(Cl)cc4CCc4cccnc43)CCN2C(=O)OC(C)(C)C)n1C [Example 365] | 2 to 10 nM |

Same assay, conditions: range stated for the group unless single

| SMILES | IC50 |
| --- | --- |
| Cc1cn(CCCN(Cc2ccccc2)C(=O)[C@H]2CN([C@H]3c4ccc(Cl)cc4CCc4cccnc43)CCN2C(=O)OC2CCCCC2)cn1 [Example 225] | 2 nM |

Tested on: COS Cell
Experiment: COS Cell IC50 (Cell-Based Assay)
Conditions: range stated for the group
Protocol: FPT IC50 (inhibition of farnesyl protein transferase, in vitro enzyme assay) and COS Cell IC50 (Cell-Based Assay) were determined following the assay procedures described in WO 95/10516, published Apr. 20, 1995. GGPT IC50 (inhibition of geranylgeranyl protein transferase, in vitro enzyme assay), Cell Mat Assay, and anti-tumor activity (in vivo anti-tumor studies) could be determined by the assay procedures described in WO 95/10516. The disclosure of WO 95/10516 is incorporated herein by reference thereto.

| SMILES | IC50 |
| --- | --- |
| Cn1cncc1CCCNC(=O)[C@H]1CN(C2c3ccc(Cl)cc3CCc3cc(Br)cnc32)CCN1C(=O)NC1CCCCC1 (some centres unmarked) [Example 101] | ≤ 35 nM |
| CC(C)(C)NC(=O)N1CCN(C2c3ccc(Cl)cc3CCc3cc(Br)cnc32)C[C@@H]1C(=O)NCCCn1ccnc1N (some centres unmarked) [Example 103] | ≤ 35 nM |

Tested on: not given
Experiment: not given
Conditions: not given

| SMILES | melting point |
| --- | --- |
| CC(C)(C)NC(=O)N1CCN([C@@H]2c3ccc(Cl)cc3CCc3cc(Br)cnc32)C[C@@H]1C(=O)NCCC(C)(C)n1ccnc1 [Example 11] | 157 to 159 °C |
| CC(C)OC(=O)N1CCN([C@H]2c3ccc(Cl)cc3CCc3cc(Br)cnc32)C[C@@H]1C(=O)NCCC(C)(C)n1ccnc1 [Example 16] | 109 to 111 °C |
| CCN(CCCn1ccnc1)C(=O)[C@H]1CN(C2c3ccc(Cl)cc3CCc3cc(Br)cnc32)CCN1C(=O)NC1CCCCC1 (some centres unmarked) [Example 111] | 79.3 °C |
| CCCN(CCCn1ccnc1)C(=O)[C@H]1CN(C2c3ccc(Cl)cc3CCc3cc(Br)cnc32)CCN1C(=O)NC1CCCCC1 (some centres unmarked) [Example 112] | 63.8 to 67.4 °C |
| O=C(NCCn1nc2ccccc2n1)[C@H]1CN(C2c3ccc(Cl)cc3CCc3cc(Br)cnc32)CCN1C(=O)NC1CCCCC1 (some centres unmarked) [Example 291] | 132 to 135 °C |
| O=C(NCCn1nnc2ccccc21)[C@H]1CN(C2c3ccc(Cl)cc3CCc3cc(Br)cnc32)CCN1C(=O)NC1CCCCC1 (some centres unmarked) [Example 292] | 127 to 132 °C |
| O=C(NCCc1cnc(C(F)(F)F)[nH]1)[C@H]1CN(C2c3ccc(Cl)cc3CCc3cc(Br)cnc32)CCN1C(=O)NC1CCCCC1 (some centres unmarked) [Example 294] | 173.8 °C |
| O=C(NCCCn1ccnc1CO)[C@H]1CN(C2c3ccc(Cl)cc3CCc3cc(Br)cnc32)CCN1C(=O)NC1CCCCC1 (some centres unmarked) [Example 296] | 141.2 °C |
| O=C(NCCc1cnc(O)[nH]1)[C@H]1CN(C2c3ccc(Cl)cc3CCc3cc(Br)cnc32)CCN1C(=O)NC1CCCCC1 (some centres unmarked) [Example 297] | 182.1 to 219.4 °C |
| CCn1cncc1CCN(CC1CC1)C(=O)[C@H]1CN(C2c3ccc(Cl)cc3CCc3cc(Br)cnc32)CCN1C(=O)OC(C)(C)C (some centres unmarked) [Example 304] | 103.7 to 107.5 °C |
| Cn1cncc1CCN(CC1CC1)C(=O)[C@H]1CN([C@H]2c3ccc(Cl)cc3CCc3cccnc32)CCN1C(=O)OC(C)(C)C [Example 306] | 100 to 114 °C |
| CCn1cncc1CCN(CC1CC1)C(=O)[C@H]1CN([C@H]2c3ccc(Cl)cc3CCc3cccnc32)CCN1C(=O)OC(C)(C)C [Example 307] | 89.1 to 96.5 °C |
| CCn1cncc1CCN(CC1CC1)C(=O)[C@H]1CN([C@@H]2c3ccc(Cl)cc3CCc3cccnc32)CCN1C(=O)OC(C)(C)C [Example 308] | 89.1 to 96.5 °C |
| Cc1cn(CCCN(Cc2ccccc2)C(=O)[C@H]2CN(C3c4ccccc4CCc4cc(Cl)cnc43)CCN2C(=O)OC2CCCCC2)cn1 (some centres unmarked) [Example 395] | 91 to 107 °C |
